SMILES strings stand for the structures.

One assay deals with fibronectin. Kind of assay: Immunoblotting, fibronectin expression in GL261. The format is cell-based, mouse. To be noted: GL261, 10 µM, 48 h. How it is done:
GL261 cell was seeded at 2.5 × 10^4 cells per well in 24-well plates with culture medium supplemented with 10% FBS. After 24 h of incubation, the medium was changed to DMEM containing 10% FBS and 0.1%DMSO PBS, 300 μM temozolomide, 10 μM astaxanthin, or 10 μM adonixanthin was added for 6 and 48 h. Cells were lysed in a special buffer (RIPA buffer R0278; Sigma-Aldrich, St. Louis, MO, USA) with a protease inhibitor cocktail (Sigma-Aldrich), phosphatase inhibitor cocktails 2 and 3 (Sigma-Aldrich), and sample buffer (Wako, Osaka, Japan). The protein concentration was determined by comparison with a known concentration of bovine serum albumin using the BCA Protein Assay Kit (Thermo Fisher Scientific). The amount of total protein was 2 μg. […] The band intensity was […] using an Immuno Star LD (Wako). Band intensity was measured using an LAS-4000 UV mini Luminescent Image Analyzer (Fujifilm, Tokyo Japan) and Multi Gauge Version 3.0 (Fujifilm). The phosphorylation of ERK1/2, Akt, and p38 MAPK was measured by normalizing against total ERK1/2, total Akt, and total p38 MAPK. […]

The subject of the next assay is hippocampal inflammation. Also noted: method as in PMID 28017669. To be noted: diabetic mice, oral 25 mg/kg ref 45; cited from earlier work.

In the case of `CC1=C(/C=C/C(C)=C/C=C/C(C)=C/C=C/C=C(C)/C=C/C=C(C)/C=C/C2=C(C)C(=O)[C@@H](O)CC2(C)C)C(C)(C)C[C@H](O)C1` [Adonixanthin, adonixanthin], the expression of fibronectin entry in the assay with fibronectin is “decreased”.

Consider `CC1=C(/C=C/C(C)=C/C=C/C(C)=C/C=C/C=C(C)/C=C/C=C(C)/C=C/C2=C(C)C(=O)[C@@H](O)CC2(C)C)C(C)(C)C[C@H](O)C1=O` [Astaxanthin, astaxanthin], for which the hippocampal inflammation entry in the assay with hippocampal inflammation is listed as “inhibited hippocampal inflammation”.
